Measured values reported in publication PMC6916168, “Multifunctional Glycoconjugates for Recruiting Natural Antibodies against Cancer Cells” (Chemistry (Weinheim an Der Bergstrasse, Germany), 2019).

Molecular target: human anti-Rha IgM
Assay: Competitive ELISA: inhibition of human anti-Rha IgM binding to PAA-Rha coated wells
Settings: indirect competitive ELISA; human serum 20 %; PAA-Rha coating 5 μg mL^−1; 1 h at 37 °C; Alexa-Fluor488 goat anti-human IgM (1:400), fluorescence Ex 488/Em 530 nm; average of three independent experiments; read-out: IC50, inhibition of binding of human anti-Rha IgM to Rha coated wells (monovalent control)
Procedure: We next performed enzyme‐linked immunosorbent assay (ELISA)‐type studies to evaluate the ability of glycoconjugates 3 and 6 to bind natural Abs. Microtiter plates were first coated with a commercial Rha‐functionalized poly[N‐(2‐hydroxyethyl)acrylamide] polymer (PAA‐Rha) and incubated with human serum, a source of anti‐Rha antibodies, then fluorescent goat anti‐human IgM and IgG. […] This observation is in good agreement with previous studies showing strong ratio variations of circulating antibodies in human sera.15, 16 A competitive assay was next performed with glycoconjugates 3 and 6 as inhibitors and Rha as the monovalent control (Figure 1). […]
The ability of the ABMs to recruit anti‐Rha antibodies present in human serum (HS) was evaluated by an indirect competitive ELISA binding study. […] The fluorescence has been measured by using an Omega BMG LABTECH plate reader (Ex: 488 nm/ Em: 530 nm). The percentage of binding inhibition of the human anti‐Rha IgM antibody to the rhamnose‐coated microplate was calculated by using the formula: inhibition (%)=((F max−F)/F max)×100. F max corresponds to the mean value of the higher fluorescence limit reached in the dilution series of each rhamnose conjugate whereas F is the fluorescence red for each concentration of the compound tested. The fluorescence values used in this formula were an average of triplicate experiments. […]

- IC50: 1200 µM
Compound: C[C@H](O)[C@H](O)[C@@H](O)[C@@H](O)C=O [Rha, L‐rhamnose]
